Measurements: patent US9388164B2, “Methods of using pyruvate kinase activators” (AGIOS PHARMACEUTICALS, INC, priority 2011, dated 2016)

Columns and labels:
Assay type in all cases: biochemical
PKR R532W [1] = target: T1, PKR R532W (Homo sapiens, UniProt P30613, R532W); assay: PKR Mutant Assay, AC50 (R532W)
Description: (§1) • PKR or PKR mutant enzyme solution was diluted in assay buffer. • 2 μL of test compound was added into wells first, and then 180 μL reaction mix was added. • Reactions mixture with test compound was assembled except for ADP, and plates were stored for 60 minutes at room temperature. • 20 uL ADP was added to start reaction at room temperature and reaction progress was measured as changes in absorbance at 340 nm wavelength at room temperature.
(§2) Test Compound Preparation: • Test compound stock was made at 100× concentration in 100% DMSO (10 mM) • 1 to 3 dilutions were made for 11 points (i.e. 50 μl of first concentration added to 100 μl 100% DMSO to yield 3.33 mM, 50 μl of this added to 100 μl DMSO to yield 1.11 mM, and so forth) • 1 to 100 dilution into assay (2 μl in 200 μl) yielded starting concentration of 100 μM, decreasing 3 fold for 11 points.

PKR T384W [2] = target: T2, PKR T384W (Homo sapiens, UniProt P30613); assay: PKR Mutant Assay, AC50 (T384W)
Description: as §1, §2

PKR R510Q [3] = target: T3, PKR R510Q (Homo sapiens, UniProt P30613, R510Q); assay: PKR Mutant Assay, AC50 (R510Q)
Description: as §1, §2

PKR G364D = PKR G364D (Homo sapiens, UniProt P30613, G364D); assay: PKR Mutant Assay, AC50 (G364D)
Description: as §1, §2

PKR R479H = PKR R479H (Homo sapiens, UniProt P30613, R479H); assay: PKR Mutant Assay, AC50 (R479H)
Description: as §1, §2

PKR R510Q [4] = target: T3, PKR R510Q; assay: PKR R510Q Single Point Percent Activation Assay; details: compound at 1 μM; for activation at 1 µM: read-out: % Act. R510Q
Description: PKR R510Q Single Point Percent Activation Assay
(§3) A compound described herein was diluted with DMSO and tested at 1 μM concentration. The enzyme was diluted in 1× Buffer: (100 mM KCl, 50 mM Tris 7.5, 5 mM MgCl2, 1 mM DTT, 0.03% BSA). 2 μL of compound solution was first added into wells, and then 180 μL of enzyme solution was added. Assays were assembled except for ADP, and plates were stored for 60 minutes at RT. 20 μL ADP was added to start the assay and assay output was evaluated using OD340 at SpectraMax. The assay was run at room temperature.
PKR R510Q (40 ng/well), Tris pH 7.5 (50 mM), KCl (100 mM), MgCl2 (5 mM), ADP (0.2 mM), PEP (0.11 mM), NADH (180 μM), LDH (0.5 units, Sigma 59023), DTT (1 mM) and BSA (0.03%).

PKR R532W [5] = target: T1, PKR R532W; assay: PKR R532W Single Point Percent Activation Assay; details: compound at 1 μM; for activation at 1 µM: read-out: % Act. R532W
Description: PKR R532W Single Point Percent Activation Assay
as §3
PKR R532W (100 ng/well), Tris pH 7.5 (50 mM), KCl (100 mM), MgCl2 (5 mM), ADP (0.36 mM), PEP (0.1 mM), NADH (180 μM), LDH (0.5 units, Sigma 59023), DTT (1 mM) and BSA (0.03%).

PKR T384W [6] = target: T2, PKR T384W; assay: PKR T384W Single Point Percent Activation Assay; details: compound at 1 μM
Description: PKR T384W Single Point Percent Activation Assay
A compound described herein was diluted with DMSO and tested at 1 μM concentration. The enzyme was diluted in 1× Buffer: (100 mM KCl, 50 mM Tris 7.5, 5 mM MgCl2, 1 mM DTT, 0.03% BSA). 2 μL of compound solution was first added into wells, and then 180 μL enzyme solution was added. Assays were assembled except for ADP, and plates were stored for 60 minutes at RT. 20 μL ADP was added to start the assay and assay output was evaluated using OD340 at SpectraMax. The assay was run at room temperature.
PKR T384W soluble (300 ng/well), Tris pH 7.5 (50 mM), KCl (100 mM), MgCl2 (5 mM), ADP (0.08 mM), PEP (0.23 mM), NADH (180 μM), LDH (0.5 units, Sigma 59023), DTT (1 mM) and BSA (0.03%).

PKR wt = PKR wt (Homo sapiens, UniProt P30613); assay: PKR WT Single Point Percent Activation Assay; details: compound at 1 μM
Description: PKR WT Single Point Percent Activation Assay
as §3
PKR wt (100 ng/well), Tris pH 7.5 (50 mM), KCl (100 mM), MgCl2 (5 mM), ADP (0.48 mM), PEP (0.15 mM), NADH (180 μM), LDH (0.5 units, Sigma 59023), DTT (1 mM) and BSA (0.03%).

wild type PKR = wild type PKR (Homo sapiens, UniProt P30613); assay: PKR assay, AC50 (wild type); details: read-out: PKR WT AC50
Description: as §1, §2

wild type PKR, sequence (P30613 whole entry): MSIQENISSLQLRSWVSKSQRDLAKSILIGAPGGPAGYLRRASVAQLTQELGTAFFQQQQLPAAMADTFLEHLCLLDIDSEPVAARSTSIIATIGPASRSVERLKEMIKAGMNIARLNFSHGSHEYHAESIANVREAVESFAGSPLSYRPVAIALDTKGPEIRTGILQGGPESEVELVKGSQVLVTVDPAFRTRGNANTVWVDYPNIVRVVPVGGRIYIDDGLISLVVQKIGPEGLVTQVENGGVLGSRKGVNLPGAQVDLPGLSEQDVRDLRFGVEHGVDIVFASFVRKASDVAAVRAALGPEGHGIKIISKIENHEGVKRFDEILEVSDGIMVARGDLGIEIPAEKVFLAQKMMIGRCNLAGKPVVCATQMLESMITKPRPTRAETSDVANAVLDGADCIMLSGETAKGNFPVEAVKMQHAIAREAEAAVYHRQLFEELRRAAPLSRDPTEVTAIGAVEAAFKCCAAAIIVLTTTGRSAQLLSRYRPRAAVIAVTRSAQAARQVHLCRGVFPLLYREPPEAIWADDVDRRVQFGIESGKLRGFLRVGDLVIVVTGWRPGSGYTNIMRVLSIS
PKR wt, sequence (P30613 whole entry): as above
T1 sequence (P30613 whole entry R532W): as the sequence (P30613 whole entry) above, with R532W counted along it
T3 sequence (P30613 whole entry R510Q): as the sequence (P30613 whole entry) above, with R510Q counted along it
T2 sequence (P30613 whole entry T384M): as the sequence (P30613 whole entry) above, with T384M counted along it
PKR R479H, sequence (P30613 whole entry R479H): as the sequence (P30613 whole entry) above, with R479H counted along it
PKR G364D, sequence (P30613 whole entry G364D): as the sequence (P30613 whole entry) above, with G364D counted along it

SMILES | AC50 (PKR R532W [1]) | AC50 (PKR T384W [2]) | AC50 (PKR R510Q [3]) | activation at 1 µM (PKR R510Q [4]) | activation at 1 µM (PKR R532W [5]) | activation at 1 µM (PKR wt) | AC50 (wild type PKR) | % Act. T384W (PKR T384W [6]) | also measured
O=C(c1ccc(NS(=O)(=O)c2cccc3cccnc23)cc1)N1CC(OCc2ccccc2)C1 [drawing 12] | – | – | – | 101 to 500% | 101 to 500% | 101 to 500% | 0.101 to 0.5 µM | B (a % activation at 1 μM of from 101 to 500) | –
O=C(c1ccc(NS(=O)(=O)c2cccc3cccnc23)cc1)N1CC(Oc2ccccc2)C1 [drawing 4] | – | – | – | 101 to 500% | 101 to 500% | 101 to 500% | 0.101 to 0.5 µM | B (a % activation at 1 μM of from 101 to 500) | –
O=C(c1ccc(NS(=O)(=O)c2cccc3cccnc23)cc1)N1CC(O)(Cc2ccccc2)C1 [drawing 5] | – | – | – | 101 to 500% | 101 to 500% | 101 to 500% | < 0.1 µM | B (a % activation at 1 μM of from 101 to 500) | –
O=C(c1ccc(NS(=O)(=O)c2cccc3cccnc23)cc1)N1CC(O)(c2ccccc2)C1 [drawing 40] | – | – | – | 101 to 500% | 101 to 500% | 101 to 500% | 0.101 to 0.5 µM | B (a % activation at 1 μM of from 101 to 500) | –
O=C(c1ccc(NS(=O)(=O)c2cccc3cccnc23)c(F)c1)N1CC(Nc2ccccc2)C1 [drawing 22] | – | – | – | 101 to 500% | 101 to 500% | 101 to 500% | > 0.5 µM | B (a % activation at 1 μM of from 101 to 500) | –
O=C(NC1CN(C(=O)c2ccc(NS(=O)(=O)c3cccc4cccnc34)cc2)C1)c1ccccn1 [drawing 15] | – | – | – | – | – | – | > 0.5 µM | B (a % activation at 1 μM of from 101 to 500) | % Act. R510Q (PKR R510Q [4]): B (a % activation at 1 μM of from 101 to 500); % Act. R532W (PKR R532W [5]): B (a % activation at 1 μM of from 101 to 500); Act. % WT (PKR wt): B (a % activation at 1 μM of from 101 to 500)
COc1ccccc1OC1CN(C(=O)c2ccc(NS(=O)(=O)c3cccc4cccnc34)c(C)c2)C1 [drawing 63] | – | – | – | 101 to 500% | 101 to 500% | 101 to 500% | < 0.1 µM | A (a % activation at 1 μM of from 1 to 100) | –
Cc1cc(C(=O)N2CC(Oc3ccccc3)C2)ccc1NS(=O)(=O)c1cccc2cccnc12 [drawing 10] | – | – | – | 101 to 500% | 1 to 100% | 1 to 100% | < 0.1 µM | A (a % activation at 1 μM of from 1 to 100) | –
Cc1cc(C(=O)N2CC(NC(=O)c3ccccn3)C2)ccc1NS(=O)(=O)c1cccc2cccnc12 [drawing 7] | – | – | – | 101 to 500% | 1 to 100% | 101 to 500% | 0.101 to 0.5 µM | B (a % activation at 1 μM of from 101 to 500) | –
O=C(c1ccc(NS(=O)(=O)c2cccc3cccnc23)cc1)N1CC(NCc2ccccc2)C1 | – | – | – | 101 to 500% | 101 to 500% | 101 to 500% | – | B (a % activation at 1 μM of from 101 to 500) | –
O=C(c1ccc(S(=O)(=O)Nc2cccc3cccnc23)cc1)N1CC(OCc2ccccc2)C1 | – | – | – | 101 to 500% | 1 to 100% | 101 to 500% | – | B (a % activation at 1 μM of from 101 to 500) | –
O=C(Nc1ccccn1)OC1CN(C(=O)c2ccc(NS(=O)(=O)c3cccc4cccnc34)c(F)c2)C1 | – | – | – | 101 to 500% | 101 to 500% | 101 to 500% | – | B (a % activation at 1 μM of from 101 to 500) | –
COc1ccccc1OC1CN(C(=O)c2ccc(NS(=O)(=O)c3cccc4cccnc34)c(F)c2)C1 | – | – | – | 1 to 100% | 101 to 500% | 101 to 500% | – | B (a % activation at 1 μM of from 101 to 500) | –
CC1(O)CN(C(=O)c2ccc(NS(=O)(=O)c3cccc4cccnc34)c(F)c2)C1 | – | – | – | 101 to 500% | 1 to 100% | 101 to 500% | – | B (a % activation at 1 μM of from 101 to 500) | –

Further lines, with some results ahead:

AC50 (PKR R532W [1]) | AC50 (PKR T384W [2]) | AC50 (PKR R510Q [3]) | activation at 1 µM (PKR R510Q [4]) | activation at 1 µM (PKR R532W [5]) | activation at 1 µM (PKR wt) | AC50 (wild type PKR) | SMILES | % Act. T384W (PKR T384W [6]) | also measured
0.101 to 0.5 µM | 0.101 to 0.5 µM | – | – | – | – | – | O=C(c1ccc(NS(=O)(=O)c2cccc3cccnc23)cc1)N1CC(OCc2ccccc2)C1 [drawing 78] | – | –
0.101 to 0.5 µM | 0.101 to 0.5 µM | > 0.5 µM | – | – | – | – | O=C(c1ccc(NS(=O)(=O)c2cccc3cccnc23)cc1)N1CC(O)(c2ccccc2)C1 [drawing 106] | – | AC50 (PKR G364D): > 0.5 µM; AC50 (PKR R479H): > 0.5 µM
– | – | 0.101 to 0.5 µM | – | – | – | – | Cc1cc(C(=O)N2CC(Nc3ccccn3)C2)ccc1NS(=O)(=O)c1cccc2cccnc12 [drawing 121] | – | –
< 0.1 µM | < 0.1 µM | 0.101 to 0.5 µM | – | – | – | – | Cc1cc(C(=O)N2CC(Oc3ccccc3)C2)ccc1NS(=O)(=O)c1cccc2cccnc12 [drawing 76] | – | –
– | – | > 0.5 µM | – | – | – | – | O=C(Nc1ccccn1)OC1CN(C(=O)c2ccc(NS(=O)(=O)c3cccc4cccnc34)cc2)C1 [drawing 131] | – | –
< 0.1 µM | < 0.1 µM | > 0.5 µM | – | – | – | – | COc1ccccc1OC1CN(C(=O)c2ccc(NS(=O)(=O)c3cccc4cccnc34)c(C)c2)C1 [drawing 129] | – | –
> 0.5 µM | > 0.5 µM | – | – | – | – | – | O=C(NC1CN(C(=O)c2ccc(NS(=O)(=O)c3cccc4cccnc34)cc2)C1)c1ccccn1 [drawing 81] | – | –
> 0.5 µM | > 0.5 µM | > 0.5 µM | – | – | – | – | O=C(c1ccc(NS(=O)(=O)c2cccc3cccnc23)c(F)c1)N1CC(Nc2ccccc2)C1 [drawing 88] | – | –
0.101 to 0.5 µM | 0.101 to 0.5 µM | > 0.5 µM | – | – | – | – | Cc1cc(C(=O)N2CC(NC(=O)c3ccccn3)C2)ccc1NS(=O)(=O)c1cccc2cccnc12 [drawing 73] | – | –
< 0.1 µM | 0.101 to 0.5 µM | > 0.5 µM | – | – | – | – | O=C(c1ccc(NS(=O)(=O)c2cccc3cccnc23)cc1)N1CC(Oc2ccccc2)C1 [drawing 70] | – | –
